In the supplement of paper PMC10307832:

compound: COC1=CC=C(C=C1)CN2C=CC3=C2C=C(C=C3)C(=O)NO + CC(=O)Nc1cccc(-n2c(=O)n(C3CC3)c(=O)c3c(Nc4ccc(I)cc4F)n(C)c(=O)c(C)c32)c1 [Trametinib] (partner 0.02 µM); assay: relative viability (nuclei count vs DMSO), 5 days (fraction); higher = more cells survive; conditions: first compound 8 µM
Method in brief: (§1)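 Lung cancer cell lines in 1536-well plates got either a single drug or a fixed anchor-drug dose together with five library-drug doses (not always all listed) in √10 steps, by pin tool, on the day after seeding. Nuclei were counted after 5 days, and relative viability is the treated-to-vehicle ratio of nuclei counts. Values are medians of duplicate plates.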

Cell Line | relative viability
NCI-H1944 | 0.429

compound: COC1=CC=C(C=C1)CN2C=CC3=C2C=C(C=C3)C(=O)NO + Nc1ncn([C@H]2C[C@H](O)[C@@H](CO)O2)c(=O)n1 [Decitabine] (partner 2 µM); assay: as above; conditions: first compound 0.08 µM
Method in brief: as §1

Cell Line | relative viability
NCI-H2342 | 0.76
NCI-H1975 | 0.349
H3255 | 0.565
NCI-H2023 | 0.201
NCI-H2405 | 0.516
SK-LU-1 | 0.611
NCI-H1437 | 0.558
NCI-H596 | 1.04
HCC-15 | 0.529
NCI-H460 | 0.457
EMC-BAC-2 | 0.606
NCI-H2009 | 0.331
COR-L 105 | 0.515
NCI-H520 | 0.517
NCI-H1648 | 0.435
HCC-78 | 0.768
NCI-H1650 | 0.358
PC-14 | 0.212
A549 | 0.187
SW 900 | 0.441
NCI-H2170 | 0.494
SK-MES-1 | 0.397

same assay, conditions: first compound 0.253 µM

Cell Line | relative viability
NCI-H2342 | 0.733
LU99A | 0.959
NCI-H1975 | 0.364
H3255 | 0.551
NCI-H2023 | 0.234
SK-LU-1 | 0.616
NCI-H1734 | 0.507
NCI-H1437 | 0.608
ABC-1 | 1.16
NCI-H596 | 1.78
HCC-15 | 0.718
NCI-H460 | 0.461
NCI-H2009 | 0.352
COR-L 105 | 0.618
NCI-H1395 | 0.701
NCI-H520 | 0.481

Cell Line | relative viability
NCI-H1648 | 0.553
NCI-H358 | 0.221
HCC-78 | 0.643
EKVX | 0.327
NCI-H1650 | 0.407
EPLC-272H | 0.407
LK-2 | 0.303
PC-14 | 0.259
LXF-289 | 0.413
A549 | 0.264
SW 900 | 0.403
NCI-H522 | 0.649
NCI-H1793 | 0.678
NCI-H2170 | 0.514
SK-MES-1 | 0.377
NCI-H1944 | 0.431

same assay, conditions: first compound 0.8 µM

Cell Line | relative viability
NCI-H2342 | 0.707
LU99A | 0.952
NCI-H1975 | 0.443
H3255 | 0.627
NCI-H2023 | 0.272
NCI-H2405 | 0.791
SK-LU-1 | 0.634
NCI-H1734 | 0.527
NCI-H1437 | 0.547
ABC-1 | 1.21
NCI-H596 | 1.15
HCC-15 | 0.742
NCI-H460 | 0.468
EMC-BAC-2 | 1.02
NCI-H2009 | 0.37
COR-L 105 | 0.752
NCI-H1395 | 0.758

Cell Line | relative viability
NCI-H520 | 0.484
NCI-H1648 | 0.554
NCI-H358 | 0.292
HCC-78 | 0.74
EKVX | 0.378
NCI-H1650 | 0.423
EPLC-272H | 0.385
LK-2 | 0.295
PC-14 | 0.198
LXF-289 | 0.391
A549 | 0.286
SW 900 | 0.446
NCI-H522 | 0.606
NCI-H1793 | 0.592
NCI-H2170 | 0.459
SK-MES-1 | 0.436
NCI-H1944 | 0.384

same assay, conditions: first compound 2.53 µM

Cell Line | relative viability
NCI-H2342 | 0.799
LU99A | 0.843
NCI-H1975 | 0.456
H3255 | 0.55
NCI-H2023 | 0.244
NCI-H2405 | 0.752
SK-LU-1 | 0.753
NCI-H1734 | 0.534
NCI-H1437 | 0.576
ABC-1 | 1.21
NCI-H596 | 0.922
HCC-15 | 0.714
NCI-H460 | 0.432
EMC-BAC-2 | 0.968
NCI-H2009 | 0.36
COR-L 105 | 0.601
NCI-H1395 | 0.842

Cell Line | relative viability
NCI-H520 | 0.495
NCI-H1648 | 0.539
NCI-H358 | 0.197
HCC-78 | 0.702
EKVX | 0.372
NCI-H1650 | 0.392
EPLC-272H | 0.457
LK-2 | 0.296
PC-14 | 0.223
LXF-289 | 0.386
A549 | 0.235
SW 900 | 0.423
NCI-H522 | 0.63
NCI-H1793 | 0.662
NCI-H2170 | 0.455
SK-MES-1 | 0.369
NCI-H1944 | 0.456

same assay, conditions: first compound 8 µM

Cell Line | relative viability
NCI-H2342 | 0.769
LU99A | 0.911
NCI-H1975 | 0.388
H3255 | 0.567
NCI-H2023 | 0.173
NCI-H2405 | 0.66
SK-LU-1 | 0.531
NCI-H1734 | 0.48
NCI-H1437 | 0.606
ABC-1 | 0.929
NCI-H596 | 1
HCC-15 | 0.642
NCI-H460 | 0.43
EMC-BAC-2 | 0.876
NCI-H2009 | 0.365
COR-L 105 | 0.604
NCI-H1395 | 0.618

Cell Line | relative viability
NCI-H520 | 0.551
NCI-H1648 | 0.46
NCI-H358 | 0.179
HCC-78 | 0.521
EKVX | 0.415
NCI-H1650 | 0.328
EPLC-272H | 0.378
LK-2 | 0.224
PC-14 | 0.244
LXF-289 | 0.329
A549 | 0.374
SW 900 | 0.411
NCI-H522 | 0.765
NCI-H1793 | 0.286
NCI-H2170 | 0.43
SK-MES-1 | 0.343
NCI-H1944 | 0.406

compound: C[C@]1(c2nc3c(C(N)=O)cccc3[nH]2)CCCN1 [Veliparib] + C[C@@H](Oc1cc(-c2cnn(C3CCNCC3)c2)cnc1N)c1c(Cl)ccc(F)c1Cl [Crizotinib] (partner 1 µM); assay: as above; conditions: first compound 0.02 µM
Method in brief: as §1

Cell Line | relative viability
LU99A | 0.604
